Experimental data as given in patent US20190175577A1, “METHOD FOR TREATING AMYOTROPHIC LATERAL SCLEROSIS” (UNIVERSITY OF MIAMI, priority 2017, published 2019).

Tests used:
[1] = system: ALS caused by SOD1 mutations; parameters: species or system human; settings: in vivo
Protocol: (§1) Provided herein are the details of a completed, randomized, double-blind placebo controlled phase II trial. The trial was conducted at two sites and three academic medical centers in the United States. An independent medical monitor completed regular review of laboratory reports and adverse events (AEs), as well as real-time review of serious adverse events (SAEs). Eligibility criteria (FIG. 1) aimed to enroll, from across the U.S. and Canada, a population relatively early in the course of ALS caused by SOD1 mutations associated with rapidly progressive disease.
Randomization (1:1 to Arimoclomol or matching placebo) was stratified by Riluzole use and in block size of two within each stratum, and implemented using a central web-based electronic data capture (EDC) system managed by the Neurological Clinical Research Institute Data Management Center at MGH. The randomization schedule, generated by a study statistician, was provided to each research pharmacy. At randomization, the EDC assigned a subject identification number, which the site-coordinator submitted to the research pharmacy for drug dispensing. […]
The first participants were randomized and administered 100 mg of Arimoclomol three times daily. […] All data were analyzed following the intent-to-treat principle.
Assessments were performed in person only at Baseline and Month-2, with remote assessments planned for all other visits. […] In addition, AEs, concomitant medications, study drug dose management, use of ventilatory support, and key study events were recorded at all visits.
The primary endpoint of safety and tolerability was based on the frequency of AEs, abnormal vital signs, and abnormal laboratory studies above or below pre-defined alert levels. […] In summarizing AEs: (a) if a participant experienced multiple occurrences of the same event, only the occurrence with the worst severity (or highest degree of relatedness to study drug) was counted; and (b) CTCAE events were further classified into subgroups (“AE type”), e.g., pneumonia and bronchitis were both classified as upper/lower respiratory infection.

[2] = system: ALS caused by SOD1 mutations; assay: randomized, double-blind placebo controlled phase II trial: efficacy (survival, ALSFRS-R, CAFS); assay type: in vivo, human; settings: for participants alive (and without PAV or tracheostomy): at 12 months
Protocol: as §1
Randomization (1:1 to Arimoclomol or matching placebo) was stratified by Riluzole use and in block size of two within each stratum, and implemented using a central web-based electronic data capture (EDC) system managed by the Neurological Clinical Research Institute Data Management Center at MGH. The randomization schedule, generated by a study statistician, was provided to each research pharmacy. At randomization, the EDC assigned a subject identification number, which the site-coordinator submitted to the research pharmacy for drug dispensing. Encapsulated placebo was matched in color and appearance to active drug. Except for the research pharmacists, pharmacy monitors, and study statisticians, all other personnel and study participants were blinded to treatment assignments.
The first participants were randomized and administered 100 mg of Arimoclomol three times daily. After enrollment of the first 16 participants (of whom 8 were on Arimoclomol, including 1 subject subsequently excluded per protocol), the dosage was increased to 200 mg administered three times daily for all active participants (which for the Arimoclomol group included three subjects initially started at 100 mg administered three times daily), and all newly enrolled participants received 200 mg three times a day. All data were analyzed following the intent-to-treat principle.
Assessments were performed in person only at Baseline and Month-2, with remote assessments planned for all other visits. Neurological examination, motor unit number estimation (MUNE), and slow vital capacity (SVC) could only be performed in person. Other assessments, conducted at all visits (in person and remotely), included: vital signs; blood and urine for safety labs; ALSFRS-R (revised ALS Functional Rating Scale), which has been validated for telephone administration; and the forced expiratory volume in 6-seconds (FEV6). Miano et al., Amyotrophic Lateral Sclerosis And Other Motor Neuron Disorders: Official Publication Of The World Federation Of Neurology, Research Group On Motor Neuron Diseases 2004; 5:235-239; Vandevoorde et al., Chest 2005; 127:1560-1564. In addition, AEs, concomitant medications, study drug dose management, use of ventilatory support, and key study events were recorded at all visits.
Operationalization of remote assessments posed logistical challenges that required the introduction of two innovative features: (1) the collection of vital signs and blood/urine for safety labs in participants' homes, this was accomplished using the services of a mobile medical provider; and (2) the use of FEV6 as the principal measure of respiratory function. The key advantage of FEV6 over SVC is that FEV6 may be self-administered by the participant using a low-cost portable device (e.g., Piko-6, nSpireHealth, Inc.). […] Use of the FEV6 allowed for remote assessment of respiratory function, which otherwise would not have been available for collection in this trial. Reproducibility and normative data for FEV6 are established. Hankinson et al., Chest 2003; 124:1805-1811.
For efficacy, the principal outcome measure was PAV- and tracheostomy-free survival time, calculated from baseline to PAV (defined as first of seven consecutive days when PAV was used >22 hours/day) or tracheostomy, date of death (if no PAV or tracheostomy), or date of last available follow-up/study contact (if still PAV- and tracheostomy-free by then). […]

[O-][n+]1cccc(/C(Cl)=N/OC[C@H](O)CN2CCCCC2)c1 [Arimoclomol]
discontinuation because of adverse event [1]: A single participant stopped Arimoclomol because of a skin rash | relatedness of SAEs to study drug [1]: none of which were considered related to study drug | serious adverse events (SAEs) reported [1]: 7 | CAFS potential treatment benefit vs placebo ([2]; 95% CI: −2.50 to 11.64): 4.57 points | ALSFRS-R rate of decline, average (±SE) ([2]; A4V subgroup): 2.6±0.5 points/month | treatment difference in ALSFRS-R rate of decline vs placebo ([2]; A4V subgroup, 95% CI: −0.28 to 2.24, p=0.12): 0.98 points/month | win ratio, participant-to-participant comparison between the two groups ([2]; CAFS): 1.6924 | unadjusted hazard ratio (HR), PAV- and tracheostomy-free survival ([2]; Cox proportional hazards model, Arimoclomol compared to control, 95% CI: 0.29-1.48, p=0.33): 0.67 | hazard ratio (HR) adjusted for baseline ALSFRS-R and Riluzole ([2]; Cox proportional hazards model, 95% CI: 0.32-1.80, p=0.55): 0.77 | treatment difference in ALSFRS-R rate of decline, Vonesh model ([2]; Vonesh shared parameter model, 95% CI: −0.33 to 1.86, p=0.16): 0.77±0.54 points/month | treatment difference in ALSFRS-R rate of decline vs placebo ([2]; all participants, 95% CI: −0.63 to 1.63, p=0.37): 0.5 points/month | ALSFRS-R rate of decline, average (±SE) ([2]; all participants, mixed model): 2.5±0.4 points/month | participants alive (and without PAV or tracheostomy) ([2]; all participants, Kaplan-Meier): 34% | participants alive (and without PAV or tracheostomy) ([2]; subgroup of A4V participants): 29% | direct effect of treatment on survival, Vonesh model ([2]; p=0.62): not significant | CAFS rank score, average (±SE) ([2]; rank scores range from 1 (worst) to 36 (best)): 20.9±2.5 | ALSFRS-R difference over a one-year period ([2]; translated from treatment difference of 0.5-1.0 points/month, not statistically significant): 6-12 points
